# Test system: A15T3 dsDNA (DNA, duplex) AAAAAAAAAAAAAAATCGTCGTCGTCGTCGTCGAAAAAAAAAAAAAAAAAGCAGTTGATCGTTTGGATACCCTGG/TTCGACGACGACGACGACGATTT
# Assay: fluorescence quenching, log[(F0-F)/F] against log[DNA]
# Conditions: unit not given; free DNA presumed to be A15T3 dsDNA; buffer of titration not stated
compound,measurement,value
COc1cccc2c1C(=O)c1c(O)c3c(c(O)c1C2=O)C[C@@](O)(C(=O)CO)C[C@@H]3O[C@H]1C[C@H](N)[C@H](O)[C@H](C)O1,K,0.026
